Assay results reported in patent publication US9745339B2 (GRAFFINITY PHARMACEUTICALS GMBH, priority 2012, dated 2017).

How the values were obtained:
host cell proteins (HCP) = assay: Microtiter plate chromatography of resins: binding of host cell proteins; design: species or system CHO cell culture
Protocol: Flowthrough from protein A chromatography (referred to as host cell proteins) was derived from the supernatant of antibody-producing CHO cell culture in serum-free medium. Coomassie brilliant blue dye reagent for Bradford assay was purchased from Thermo Scientific (Bonn/Germany).
(§1) Resins were assessed in packed mode by microtiter plate chromatography. For each column, approximately 30 μl of resin were transferred to a 384-well filter plate and sealed with appropriate top fits. Columns with rProtein A SEPHAROSE 4 FF and MABSORBENT A2P HF were included as controls.
(§2) Either 3.3 cv of whole IgGs dissolved at 0.5 mg ml^−1 in PBS or undiluted host cell proteins (HCP) were injected onto columns.
(§3) Unbound protein was washed from columns with 5 cv of PBS prior to elution with 5 cv of glycine buffer at pH 2.5. […] During injection of samples, speed was reduced to 10 g and centrifugation time increased to 5-10 min. Effluent fractions were collected in 384-well plates and concentrations of protein were analyzed by Bradford assay. Protein masses mi, mft and me (see below) were calculated as the product of fraction volume and measured protein concentration.
(§4) The fraction of bound protein was calculated as the difference between the total mass of protein injected mi and the mass of protein detected in the flowthrough mft, divided by the total mass of protein injected.
(§5) The fraction of bound protein and the yield of protein were calculated for each resin based on data for whole IgG-antibodies. In the case of host cell proteins, only the fraction of bound protein is given. Selectivity of resins was calculated from data for Bevacizumab whole IgG and host cell proteins. Due to limited experimental precision, selectivity was truncated for values beyond 10.

Bevacizumab [1] = biological target: T1, Bevacizumab (Homo sapiens, UniProt P01857); assay: Microtiter plate chromatography of resins: binding and elution of Bevacizumab
T1 construct: 0.5 mg/ml IgG in PBS pH 7.3; ligand immobilized on SEPHAR; Bevacizumab Yield; other: mass eluted (glycine pH 2.5) / mass injected; kd (dissociation constant, Langmuir isotherm); other: Bevacizumab 0.05-5 mg/ml in PBS pH 7.3, 25° C., at least 3 h; qm (maximum capacity); other: mg Bevacizumab per ml of resin; Langmuir isotherm; t0; fused on or other part: Humanized anti-VEGF-A VH domain joined N-terminally to the IGHG1 constant region (engineered, no UniProt entry)
Protocol: as §1, §2, §3, §4
(§6) The yield of protein was calculated as the mass of protein eluted me, divided by the mass of protein injected mi.
(§7) The selectivity of resins was calculated as the fraction of bound Bevacizumab antibody BAb, divided by the fraction of bound host cell proteins BHCP.
as §5

Bevacizumab [2] = assay: as above; conditions: fraction of bound Bevacizumab divided by fraction of bound HCP; truncated for values beyond 10
Protocol: as §1, §2, §3, §4, §6, §7, §5

Tocilizumab = assay: Microtiter plate chromatography of resins: binding and elution of Tocilizumab
Protocol: as §1, §2, §3, §4, §6, §5

Palivizumab = assay: Microtiter plate chromatography of resins: binding and elution of Palivizumab
Protocol: as §1, §2, §3, §4, §6, §5

Cetuximab = assay: Microtiter plate chromatography of resins: binding and elution of Cetuximab
Protocol: as §1, §2, §3, §4, §6, §5

[3] = tested on: poly-IgG from human serum (h-poly-IgG); assay: Microtiter plate chromatography of resins: binding and elution of human poly-IgG
Protocol: as §1, §2, §3, §4, §6, §5

Bevacizumab [4] = biological target: T1, Bevacizumab; assay: Langmuir isotherms by batch adsorption; assay type: binding; conditions: read-out: kd (dissociation constant, Langmuir isotherm); Bevacizumab 0.05-5 mg/ml in PBS pH 7.3, 25° C., at least 3 h
Protocol: Experiments were performed with Bevacizumab as antibody. Parameters of Langmuir isotherms for purified antibody were determined by batch adsorption experiments in 96-well microtiter plates. In each well, 10 μl of sorbent slurry (50% v/v) were mixed with 100 μl of protein solution. Initial concentrations varied from 0.05-5 mg/ml in phosphate-buffered saline (0.15 M NaCl, 20 mM phosphate buffer, pH 7.3; PBS). Reactions were agitated vigorously at 25° C. for at least 3 h. Afterwards, antibody concentration in the supernatants were measured by Bradford assay. Data was evaluated by direct fitting of the values with the Langmuir isotherm equation (1).
Parameters of Langmuir isotherms, i.e. dissociation constants Kd and maximum capacities qm, were determined from the measured concentrations in the supernatants. Parameters were estimated by numerical fitting of the model equation derived by Chase (1)

[5] = fraction of injected undiluted host cell proteins bound
[6] = fraction of injected protein bound, 0.5 mg/ml IgG in PBS pH 7.3, ligand immobilized on SEPHAROSE 4 FF
[7] = mass eluted (glycine pH 2.5) / mass injected
[8] = fraction of injected protein bound, 0.5 mg/ml IgG in PBS pH 7.3
[9] = L55-73: estimated values based on the knowledge obtained from L01-L54

Structure (SMILES)	Bevacizumab Bound (Bevacizumab [1]; [6]) [%]	Bevacizumab Yield (Bevacizumab [1]; [7]) [%]	Selectivity (Bevacizumab [2])	Tocilizumab Bound (Tocilizumab; [8]) [%]	Palivizumab Bound (Palivizumab; [8]) [%]	Cetuximab Bound (Cetuximab; [8]) [%]	h-poly-IgG Bound [3, 8] [%]	Kd (Bevacizumab [4]) [µM]	Bevacizumab Bound (Bevacizumab [1]; [9]) [%]	Bevacizumab Yield (Bevacizumab [1]; [9]) [%]	h-poly-IgG Bound [3, 9] [%]	Tocilizumab Bound (Tocilizumab; [9]) [%]	Palivizumab Bound (Palivizumab; [9]) [%]	Cetuximab Bound (Cetuximab; [9]) [%]	HCP Bound (host cell proteins (HCP); [5]) [%]	HCP Bound (host cell proteins (HCP); [9]) [%]
Cn1nc(C(=O)Nc2ccc3c(c2)C(=O)N(CCCN)CCO3)c2ccccc21 [Ligand L03, 4-(3-Amino-1-propyl)-7-[(1-methylindazol-3-yl)carboxamido]-2,3,4,5-tetrahydrobenzo[f][1,4]oxazepin-5-one]	100	92	2.2	99	78	99									45	
Cn1nc(NC(=O)c2ccc3c(c2)nnn3CCCN)c2ccccc21 [Ligand L06, 1-(3-Amino-1-propyl)benzotriazole-5-carboxylic acid N-(1-methylindazol-3-yl) amide]	100	84	3.2		74										31	
NCCCn1cnc2cc(C(=O)Nc3nc4ccccc4o3)ccc21 [Ligand L08, 1-(3-Amino-1-propyl)benzimidazole-5-carboxylic acid N-(benzoxazol-2-yl) amide]	100	100	2.6	100	91	100	95								39	
CCSc1nnc(NC(=O)c2ccc3c(c2)ncn3CCCN)s1 [Ligand L12, 1-(3-Amino-1-propyl)benzimidazole-5-carboxylic acid N-(2-ethylthio-1,3,4-thiadiazol-5-yl) amide]	100	104	2.5	100	100	100	100								40	
NCCCn1cnc2cc(C(=O)Nc3nccs3)ccc21 [Ligand L16, 1-(3-Amino-1-propyl)benzimidazole-5-carboxylic acid N-(thiazol-2-yl) amide]	100	96	2.7	100	87	100	88								37	
NCCCNc1ccc(C(=O)Nc2nnc(-c3ccco3)s2)cc1[N+](=O)[O-] [Ligand L18, 4-[(3-Amino-1-propyl)amino]-3-nitrobenzoic acid N-[5-(2-furyl)-1,3,4-thiadiazol-2-yl]amide]	100	102	3.4	100	100	100	100								29	
NCCCOc1ccc(C(=O)Nc2nnc(-c3ccco3)s2)cc1 [Ligand L20, 4-[(1-Amino-3-propyl)oxy]benzoic acid N-[5-(2-furyl)-1,3,4-thiadiazol-2-yl] amide]	100	100	2.9	100	100	100	100								35	
NCCCn1cnc2cc(C(=O)Nc3nc(-c4ccccc4)ns3)ccc21 [Ligand L22, 1-(3-Amino-1-propyl)benzimidazole-5-carboxylic acid N-(3-phenyl-1,2,4-thiadiazol-5-yl) amide]	100	104	3.3	100	100	100	100								30	

Second part, led by results:

Bevacizumab Bound (Bevacizumab [1]; [6]) [%]	Bevacizumab Yield (Bevacizumab [1]; [7]) [%]	Selectivity (Bevacizumab [2])	Tocilizumab Bound (Tocilizumab; [8]) [%]	Palivizumab Bound (Palivizumab; [8]) [%]	Cetuximab Bound (Cetuximab; [8]) [%]	h-poly-IgG Bound [3, 8] [%]	Kd (Bevacizumab [4]) [µM]	Bevacizumab Bound (Bevacizumab [1]; [9]) [%]	Bevacizumab Yield (Bevacizumab [1]; [9]) [%]	h-poly-IgG Bound [3, 9] [%]	Tocilizumab Bound (Tocilizumab; [9]) [%]	Palivizumab Bound (Palivizumab; [9]) [%]	Cetuximab Bound (Cetuximab; [9]) [%]	Structure (SMILES)	HCP Bound (host cell proteins (HCP); [5]) [%]	HCP Bound (host cell proteins (HCP); [9]) [%]
100	97	2.6	100	100	100	100								NCCCn1cnc2cc(C(=O)Nc3nnc(-c4ccc5c(c4)OCO5)s3)ccc21 [Ligand L09, 1-(3-Amino-1-propyl)benzimidazole-5-carboxylic acid N-[2-(3,4-methylenedioxyphenyl)-1,3,4-thiadiazol-5-yl] amide]	39	
100	100	2.2	100	100	100	100								NCCCn1cnc2cc(C(=O)Nc3nc4ccccc4s3)ccc21 [Ligand L10, 1-(3-Amino-1-propyl)benzimidazole-5-carboxylic acid N-(benzothiazol-2-yl) amide]	45	
100	99	2.0	96	61	98	88								Cc1cc(NC(=O)c2ccc3c(c2)ncn3CCCN)nn1-c1ccccc1 [Ligand L11, 1-(3-Amino-1-propyl)benzimidazole-5-carboxylic acid N-(5-methyl-1-phenylpyrazol-3-yl) amide]	51	
100	91	2.6	100	100	100	100								Cc1csc(NC(=O)c2ccc3c(c2)ncn3CCCN)n1 [Ligand L15, 1-(3-Amino-1-propyl)benzimidazole-5-carboxylic acid N-(4-methylthiazol-2-yl) amide]	39	
100	100	2.9	100	88	100	89								Cc1cnc(NC(=O)c2ccc3c(c2)ncn3CCCN)s1 [Ligand L17, 1-(3-Amino-1-propyl)benzimidazole-5-carboxylic acid N-(5-methylthiazol-2-yl) amide]	34	
100	100	10.0	98	85	100	82								NCCCn1cnc2cc(C(=O)Nc3nnc(-c4ccncc4)s3)ccc21 [Ligand L21, 1-(3-Amino-1-propyl)benzimidazole-5-carboxylic acid N-[5-(4-pyridyl)-1,3,4-thiadiazol-2-yl]amide]	2	
100							713							NCCCn1cc(-c2ccc(C(=O)Nc3nnc(-c4ccco4)s3)cc2)nn1 [Ligand L48]		
								100	>80	>80	>90	>60	>95	Cc1nc2cc(C(=O)Nc3nnc(-c4ncco4)s3)ccc2n1CCCN [Ligand L73, 1-(3-Amino-1-propyl)-2-methylbenzimidazole-5-carboxylic acid N-[5-(2-oxazolyl)-1,3,4-thiadiazol-2-yl] amide]		<20
